# Measurements taken from article PMC9372747, “Genome-wide analysis of UGT gene family identified key gene for the biosynthesis of bioactive flavonol glycosides in Epimedium pubescens Maxim” (Synthetic and Systems Biotechnology, 2022).
# Test system: T1, EpGT60
# T1 construct: not anchored to any chromosome
# Test: UPLC of rhamnosylated product, GraphPad Prism fit
# Type: biochemical, Epimedium pubescens
# Conditions: 4 mM UDP-rhamnose, 1 mM DTT, 50 mM Tris-HCl pH 7.0, 30 °C, 1 h; substrate 100-500 μM
smiles,measurement,value
CC(C)=CCc1c(O)cc(O)c2c(=O)c(O)c(-c3ccc(O)cc3)oc12 [8-prenylkaempferol],Km,289 µM
